From patent US11559525B2, “Therapeutic drug for dyskinesia” (Sumitomo Pharma Co., Ltd., priority 2019, dated 2023)
Where a name gives a salt, the structure may show the parent alone.

Assays:
[1] = test system: PD-LID rat model (6-OHDA-lesioned rats); assay: Tandospirone metabolite 1-PP on dyskinesia-like symptoms in PD-LID rat model; type: in vivo; settings: subcutaneous 10 or 30 mg/kg
Method: The behavior was observed and evaluated using the same method in Example 2. 1-PP dihydrochloride (Tokyo Chemical Industry) was dissolved in saline and subcutaneously administered to rats. After 5 minutes, a levodopa containing solution was intraperitoneally administered to observe and evaluate the behavior. The results in the drawings are indicated in terms of mean value±standard error. The test results were statistically analyzed by comparison with the solvent administration group by Steel test by using the total AIMs score in 3 hours and total AIMs score in 100 to 180 minutes as parameters.

[2] = Plasma tandospirone concentration measured after observation and evaluation of behavior in PD-LID rats; type: in vivo, rat; settings: continuous subcutaneous infusion 60 mg/mL citrate
Method: 50 μL of rat plasma sample was fractionated into a polypropylene microtube. 50 μL of methanol (50 μL of standard solution for calibration curve sample) and 200 μL of internal standard solution (Bezafibrate methanol solution: 200 nmol/L, 200 μL of methanol for blank sample) are added and stirred for about 10 seconds with a mixer. This is centrifuged (4° C., 4500 rpm, 10 min), and then the supernatant is subjected to vacuum filtration using a filter (FastRemover MF 0.2 μm). 70 μL of aqueous 10 mmol/L ammonium acetate solution is added to 70 μL of the resulting filtrate and stirred for about 10 seconds with a mixer to prepare a measurement sample.
When evaluating a tape agent, the hair on the abdominal region of rats was shaved before the evaluation date. The tape agent of formulation 2 was applied to the abdominal regions of rats on the evaluation date at 60 cm^2/kg (37 mg/kg). After 4 hours from application, a levodopa containing solution was intraperitoneally administered to observe and evaluate the behavior. Individuals with 50% or more of the tape agent coming off during the test were excluded from analysis.
After 4 hours from application, a levodopa containing solution was intraperitoneally administered to observe and evaluate the behavior. Individuals with 50% or more of the tape agent coming off during the test were excluded from analysis.
After 4 hours, a levodopa containing solution was administered to observe and evaluate the behavior.
After 4 hours, a levodopa containing solution was administered to observe and evaluate the behavior (day 0 of implanting the pump). Repeat administration of once daily levodopa containing solution was continued thereafter. The behavior was also observed and evaluated on day 13 of implanting the pump.

[3] = test system: PD-LID rat model (6-OHDA-lesioned rats); assay: Long-term dyskinesia improving effect of continuous subcutaneous infusion in PD-LID rat model; type: in vivo
Method: Individuals with a total AIMs score of less than 15 were excluded from the test as not manifesting a dyskinesia-like symptom. The behavior was observed and evaluated before the drug evaluation date. The rats were assigned to each dosing group by using the 3 hour AIMs score, Locomotive behavior score, and rat body weight as indicators, which were used for evaluation of drugs. […] The prepared solution was used after injection into an ALZET® Osmotic Pump MODEL 2ML2 (4.53 μL/hour; DURECT) for releasing a drug solution at a stable rate for 2 weeks. […] After 4 hours, a levodopa containing solution was administered to observe and evaluate the behavior (day 0 of implanting the pump). Repeat administration of once daily levodopa containing solution was continued thereafter. The behavior was also observed and evaluated on day 13 of implanting the pump. […] The results in the drawings are indicated in terms of mean value±standard error of the total AIMs scores in 3 hours. The test results were statistically analyzed using Wilcoxon rank sum test using the total AIMs score as a parameter. ** indicates p<0.01, meaning that there is a significant difference compared to the solvent administration group.

6-OHDA-lesioned rats = assay: Prevention/delay of manifestation of dyskinesia by continuous subcutaneous infusion in 6-OHDA-lesioned rats; type: in vivo, rat
Method: The prepared solution was used after injection into an ALZET® Osmotic Pump MODEL 2ML2 (4.53 μL/hour; DURECT).
6-OHDA-lesioned rats were assigned to each administration group using the number of apomorphine hydrochloride hemihydrate induced rotations and body weight as indicators. […] The osmotic pump implanted subcutaneously was retrieved after the observation and evaluation of behavior on day 15. The behavior was also observed and evaluated on the following day (day 16 of repeated administration of levodopa).
The test results were statistically analyzed by comparison with the solvent administration group using Steel test with the total AIMs score on day 16 of repeated levodopa administration as the parameter. * indicates p<0.05 and ** indicates p<0.01, meaning that there is a significant difference compared to the solvent administration group.

[4] = test system: PD-LID rat model (6-OHDA-lesioned rats); assay: Oral administration of tandospirone citrate on dyskinesia-like symptoms in PD-LID rat model; type: in vivo; settings: oral 10, 30, or 100 mg/kg as citrate concentration, levodopa 5 minutes later
Method: The behavior was observed and evaluated using the same method as Example 2. […] After 5 minutes, a levodopa containing solution was intraperitoneally administered, and the behavior was observed and evaluated. The results in the drawings are indicated in terms of mean value±standard error. The test results were statistically analyzed by comparison with the solvent administration group by Steel test using the total AIMs score in 3 hours and total AIMs score in 100 to 180 minutes as parameters. * indicates p<0.05, meaning that there is a significant difference. The dosage was described as a numerical value converted in terms of tandospirone free form.

[5] = test system: PD-LID rat model (6-OHDA-lesioned rats); assay: ON-time prolongation action (ON score, ON time without dyskinesia) in PD-LID rat model; type: in vivo
Method: To make a PD-LID rat model, a mixture of levodopa methyl ester hydrochloride (6 mg/kg; Sigma-Aldrich) dissolved in saline and benserazide hydrochloride (15 mg/kg; Sigma-Aldrich) (hereinafter, also referred to as “levodopa containing solution”) was intraperitoneally administered once daily to 6-OHDA-lesioned rats. The levodopa containing solution was repeatedly administered for 3 weeks or longer to observe and evaluate the behavior. […] The sum of the scores for Limb AIMs, Axial AIMs, and Orolingual AIMs in 3 hours was used as the total dyskinesia-like symptom (AIMs) score. Individuals with a total AIMs score of less than 10 were excluded from the test as not manifesting a dyskinesia-like symptom. The behavior was observed and evaluated before the drug evaluation date. The rats were assigned to each dosing group by using the 3 hour total dyskinesia-like symptom (AIMs) score, Locomotive behavior score, and rat body weight as indicators, which were used for evaluation of drugs. For an indicator of dyskinesia behavior, the sum of the Limb AIMs, Axial AIMs, and Orolingual AIMs at each evaluation point was used as the AIMs score. For the rotational behavior (ON score), Locomotive behavior at each evaluation point was used as an indicator. The total ON score in 3 hours was used as the total ON score. For ON time without dyskinesia, the period during which the AIMs score is 0 and Locomotive behavior is 1 or greater at each evaluation point was added. Duration of action of levodopa without a dyskinesia symptom (ON time without dyskinesia) refers to the aggregate time with no dyskinesia during the antiparkinsonian action effective time, i.e., “ON-time”, and defined as the time during which the dyskinesia symptom (AIMs) score is 0 and the rotational behavior (Locomotive behavior) score is 1 or greater at each evaluation point after levodopa administration. […] After 5 minutes, a levodopa containing solution was intraperitoneally administered, and the behavior was observed and evaluated. The results in the drawings are indicated in terms of mean value±standard error. The test results were statistically analyzed by comparison with the solvent administration group using the Steel test with the total ON score in 3 hours or ON time without dyskinesia as an indicator. ** indicates p<0.01, meaning that there is a significant difference. For evaluation of a tape agent, the abdominal regions of the rats were shaved prior to the evaluation date. […] After 4 hours from application, a levodopa containing solution was intraperitoneally administered to observe and evaluate the behavior. The results in the drawings are indicated in terms of mean value±standard error. Individuals with 50% or more of the tape agent coming off during the test were excluded from analysis. The test results were statistically analyzed by comparison with the placebo tape administration group using Wilcoxon rank sum test with the total ON score in 3 hours or ON time without dyskinesia as an indicator. * indicates p<0.05 and ** indicates […], meaning that there is a significant difference compared to the solvent oral administration group or the placebo tape administration group.

[6] = test system: PD-LID rat model (6-OHDA-lesioned rats); assay: Oral administration of tandospirone citrate on dyskinesia-like symptoms in PD-LID rat model; type: in vivo; settings: oral 30 or 100 mg/kg
[7] = oral 30 mg/kg and 100 mg/kg as citrate

Row | Compound | clear dyskinesia-like symptom (mean AIMs score of 2 or greater) at 120 to 140 minutes after levodopa [1] | total AIMs score in 100 to 180 minutes vs solvent [1] | total AIMs score vs solvent ([1]; levodopa 5 minutes later) | mean value of plasma tandospirone concentrations (converted in terms of free form) ([2]; day 0 of implanting the pump) | mean value of plasma tandospirone concentrations (converted in terms of free form) ([2]; day 13 of implanting the pump) | dyskinesia-like symptoms (total AIMs score in 180 minutes) vs solvent ([3]; continuous subcutaneous infusion 60 mg/mL (mean 0.78 mg/kg/hour as citrate), day 0 of implanting the pump) | dyskinesia-like symptoms (total AIMs score in 180 minutes) vs solvent ([3]; continuous subcutaneous infusion 60 mg/mL citrate, day 13 of implanting the pump) | increase in total AIMs score associated with repeated administration of levodopa vs solvent (6-OHDA-lesioned rats; continuous subcutaneous infusion 30 mg/mL (mean 0.41 mg/kg/hour) or 60 mg/mL (mean 0.83 mg/kg/hour), days 3-15) | total AIMs score on the day after completion of administration (day 16) vs solvent (6-OHDA-lesioned rats; continuous subcutaneous infusion 30 or 60 mg/mL, pump retrieved day 15) | total AIMs score vs solvent [4] | ON time without dyskinesia for 180 minutes vs solvent [5, 7] | total ON score after 180 minutes of levodopa administration vs solvent [5, 7] | ON-time without dyskinesia for 180 minutes (Locomotive behavior ≥1, and AIMs score=0) ([5]; oral 100 mg/kg as citrate) | total ON score ([5]; oral 100 mg/kg as citrate) | clear dyskinesia-like symptom (mean AIMs score of 2 or greater) at 120 to 140 minutes after levodopa administration [6] | total AIMs score in 100 to 180 minutes vs solvent [6]
1 | c1cnc(N2CCNCC2)nc1 [1-PP dihydrochloride, 1-(2-Pyrimidyl) piperazine] | clear dyskinesia-like symptom (mean AIMs score of 2 or greater) was observed | increasing trend in the total AIMs score, albeit not significant | significant change in the total AIMs score was not found | – | – | – | – | – | – | – | – | – | – | – | – | –
2 | tandospirone citrate | – | – | – | 281 ng/mL | 143 ng/mL | Significant improvement | significant improvement | suppressed the increase in total AIMs score | significantly lower | significant change in the total AIMs score was not observed | increase in ON time without dyskinesia | increase in the total ON score | significant prolongation | increase in the total ON score | clear dyskinesia-like symptom (mean AIMs score of 2 or greater) was observed | significant increase
